Measurements as given in patent US20250009841A1, “Methods of Diagnosing and Managing Bleeding Disorders” (Emory University, priority 2023, published 2025).

B1: abciximab (antibody, chains of the INN, looked up, V domains shown)
VH: EVQLQQSGTVLARPGASVKMSCEASGYTFTNYWMHWVKQRPGQGLEWIGAIYPGNSDTSYIQKFKGKAKLTAVTSTTSVYMELSSLTNEDSAVYYCTLYDGYYVFAYWGQGTLVTVSA
VL: EIVLTQSPVTLSVTPGDSVSLSCRASRDISNNLHWFQQTSHESPRLLIKYASQSMSGIPSRFSGSGSGTDFTLSINSVETEDFGMYFCQQTNSWPYTFGGGTKLEIK

System: healthy donor platelets
Assay: Monoclonal antibody contraction experiments on the platelet contraction cytometer
Assay type: cell-based, human
Conditions: 2.5 μg/mL monoclonal antibody
Method: Blood was drawn into acid-citrate-dextrose (ACD) solution 2 (VWR) and was subsequently centrifuged at 150 G for 15 min without brake and the resulting platelet rich plasma (PRP) was centrifuged again with an additional 10% ACD by volume at 900 G for 5 min without brake. The supernatant, platelet poor plasma, was discarded or utilized to isolate patient polyclonal IgG antibodies. The platelet pellet was resuspended into HEPES modified buffer and was gel filtered into this same buffer using a gel filtration column. Platelets were then diluted to 2 million/mL prior to contraction cytometry to reduce paracrine signaling and minimize platelet aggregate formation.
Each contraction cytometer contains large arrays of fibrinogen microdots pairs that are patterned onto a polyacrylamide hydrogel with a stiffness of about 75 k Pa. […] These values for microdot size and spacing ensured that platelets preferentially attached to the microdots and were able to spread to neighboring microdot in the microdot pair and contract. […]
Platelet contraction was imaged on a confocal microscope using a 20×/0.8 NA lens. […] Images were analyzed using a script which calculated the center-to-center distance between fibrinogen microdots. […] Traction forces (T) of individual platelets were calculated as: T=2πGa (xs−xf)/2−v. […]

Molecule | effect on platelet contractile force (15 minutes prior to thrombin activation) | effect on platelet adhesion (fibrinogen microdots)
PAC-1 | lowers contractile forces | –
B1 | – | blocks adhesion
